Measured values from ChEMBL document CHEMBL1137357, “Further synthetic and biological studies on vitamin D hormone antagonists based on C24-alkylation and C2alpha-functionalization of 25-dehydro-1alpha-hydroxyvitamin D(3)-26,23-lactones” (J Med Chem, 2006).

Molecular target: T1, Vitamin D3 receptor (Homo sapiens) (UniProt P11473)
T1 sequence (whole entry): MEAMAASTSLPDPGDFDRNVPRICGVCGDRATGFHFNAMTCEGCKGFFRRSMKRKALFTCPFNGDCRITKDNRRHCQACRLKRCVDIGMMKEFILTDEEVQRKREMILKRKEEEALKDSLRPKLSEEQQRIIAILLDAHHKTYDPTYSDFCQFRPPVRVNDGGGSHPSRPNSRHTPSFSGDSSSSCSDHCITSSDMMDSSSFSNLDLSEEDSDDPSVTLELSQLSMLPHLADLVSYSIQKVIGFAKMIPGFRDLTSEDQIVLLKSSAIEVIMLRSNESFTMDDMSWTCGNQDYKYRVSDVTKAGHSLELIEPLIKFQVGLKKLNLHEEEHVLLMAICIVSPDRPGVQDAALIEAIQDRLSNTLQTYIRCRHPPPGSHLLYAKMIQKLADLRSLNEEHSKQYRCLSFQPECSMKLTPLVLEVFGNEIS
Experiment: Antagonist activity against 1-alpha,25-dihydroxy vitamin D3-induced HL60 cell differentiation by NBT reduction method relative to TEI-9647
Type: functional, cell-based
Parameters: scale not given: the % may be the effect or the level left
Settings: HL-60

Activity | Compound
74% | C=C1/C(=C\C=C2/CCC[C@]3(C)[C@@H]([C@H](C)C[C@H]4OC(=O)C(=C)[C@H]4CC)CC[C@@H]23)C[C@@H](O)[C@H](C)[C@@H]1O
85% | C=C1/C(=C\C=C2/CCC[C@]3(C)[C@@H]([C@H](C)C[C@H]4OC(=O)C(=C)[C@@H]4C)CC[C@@H]23)C[C@@H](O)[C@H](C)[C@@H]1O
30% | C=C1C(=O)O[C@H](C[C@@H](C)[C@H]2CC[C@H]3/C(=C/C=C4/C[C@@H](O)[C@H](CCCO)[C@H](O)C4=C)CCC[C@]23C)[C@@H]1C
2030% | C=C1/C(=C\C=C2/CCC[C@]3(C)[C@@H]([C@H](C)C[C@@H]4OC(=O)C(=C)[C@H]4CCC)CC[C@@H]23)C[C@@H](O)[C@H](C)[C@@H]1O
216% | C=C1/C(=C\C=C2/CCC[C@]3(C)[C@@H]([C@H](C)C[C@@H]4OC(=O)C(=C)[C@H]4CCCC)CC[C@@H]23)C[C@@H](O)[C@H](C)[C@@H]1O
1510% | C=C1C(=O)O[C@@H](C[C@@H](C)[C@H]2CC[C@H]3/C(=C/C=C4/C[C@@H](O)[C@H](CCCO)[C@H](O)C4=C)CCC[C@]23C)[C@@H]1C
1540% | C=C1/C(=C\C=C2/CCC[C@]3(C)[C@@H]([C@H](C)C[C@@H]4OC(=O)C(=C)[C@@H]4CCC)CC[C@@H]23)C[C@@H](O)[C@H](C)[C@@H]1O
18% | C=C1/C(=C\C=C2/CCC[C@]3(C)[C@@H]([C@H](C)C[C@H]4OC(=O)C(=C)[C@@H]4CC)CC[C@@H]23)C[C@@H](O)[C@H](C)[C@@H]1O
1290% | C=C1/C(=C\C=C2/CCC[C@]3(C)[C@@H]([C@H](C)C[C@@H]4OC(=O)C(=C)[C@@H]4CC)CC[C@@H]23)C[C@@H](O)[C@H](C)[C@@H]1O

More lines, now with the values behind:

Compound | Activity
C=C1/C(=C\C=C2/CCC[C@]3(C)[C@@H]([C@H](C)C[C@@H]4OC(=O)C(=C)[C@@H]4CCCC)CC[C@@H]23)C[C@@H](O)C[C@@H]1O | 179%
C=C1/C(=C\C=C2/CCC[C@]3(C)[C@@H]([C@H](C)C[C@@H]4OC(=O)C(=C)[C@@H]4CC)CC[C@@H]23)C[C@@H](O)C[C@@H]1O | 345%
C=C1/C(=C\C=C2/CCC[C@]3(C)[C@@H]([C@H](C)C[C@@H]4OC(=O)C(=C)[C@H]4CCCC)CC[C@@H]23)C[C@@H](O)[C@H](CCCO)[C@@H]1O | 122%
C=C1/C(=C\C=C2/CCC[C@]3(C)[C@@H]([C@H](C)C[C@H]4OC(=O)C(=C)[C@H]4CCC)CC[C@@H]23)C[C@@H](O)[C@H](OCCCO)[C@@H]1O | 97%
C=C1C(=O)O[C@H](C[C@@H](C)[C@H]2CC[C@H]3/C(=C/C=C4/C[C@@H](O)C[C@H](O)C4=C)CCC[C@]23C)[C@@H]1CC(C)C | 9%
C=C1/C(=C\C=C2/CCC[C@]3(C)[C@@H]([C@H](C)C[C@@H]4OC(=O)C(=C)[C@@H]4CC)CC[C@@H]23)C[C@@H](O)[C@H](OCCCO)[C@@H]1O | 600%
C=C1/C(=C\C=C2/CCC[C@]3(C)[C@@H]([C@H](C)C[C@H]4OC(=O)C(=C)[C@@H]4CC)CC[C@@H]23)C[C@@H](O)C[C@@H]1O | 6%
C=C1C(=O)O[C@@H](C[C@@H](C)[C@H]2CC[C@H]3/C(=C/C=C4/C[C@@H](O)C[C@H](O)C4=C)CCC[C@]23C)[C@@H]1C | 250%
C=C1/C(=C\C=C2/CCC[C@]3(C)[C@@H]([C@H](C)C[C@H]4OC(=O)C(=C)C45CC5)CC[C@@H]23)C[C@@H](O)C[C@@H]1O | < 0.3%
C=C1/C(=C\C=C2/CCC[C@]3(C)[C@@H]([C@H](C)C[C@@H]4OC(=O)C(=C)[C@@H]4CC)CC[C@@H]23)C[C@@H](O)[C@H](CCCO)[C@@H]1O | 442%
C=C1C[C@H](C[C@@H](C)[C@H]2CC[C@H]3/C(=C/C=C4/C[C@@H](O)[C@H](OCCCO)[C@H](O)C4=C)CCC[C@]23C)OC1=O | 1160%
C=C1C(=O)O[C@@H](C[C@@H](C)[C@H]2CC[C@H]3/C(=C/C=C4/C[C@@H](O)C[C@H](O)C4=C)CCC[C@]23C)[C@@H]1CC(C)C | 40%
C=C1C(=O)O[C@H](C[C@@H](C)[C@H]2CC[C@H]3/C(=C/C=C4/C[C@@H](O)[C@H](OCCCO)[C@H](O)C4=C)CCC[C@]23C)[C@@H]1C | 41%
